Laboratory results taken from patent US20240067631A1, “PYRAZOLE DERIVATIVES USEFUL AS NAMPT MODULATORS” (Cytokinetics, Inc., priority 2020, published 2024).

Biological target: human NAMPT (Homo sapiens (Human), UniProt P43490)
Assay: Human recombinant enzyme assay (NMN fluorescence biochemical assay)
Conditions: 6 nM human NAMPT, 60 min; for AC1.4 Human: concentration of compound that generates 40% higher activity over basal; for EC50: concentration that gives half-maximal activation
Protocol: Compounds described herein were assayed for their ability to stimulate the synthesis of nicotinamide mononucleotide (NMN) by the enzyme NAMPT. The human recombinant enzyme assay measures the activation of the enzyme activity by compounds using recombinant enzyme and substrates in a buffered cell-free system. The assay conditions closely mimic cellular environments. Dose responses were measured using an assay to detect the formation of nicotinamide mono-nucleotide. All experiments were performed in the 384-well format. Generally, 0.5 μL of DMSO containing varying concentrations of the test compound was mixed with 10 μL of the enzyme reagent solution. Enzyme reactions were initiated with the addition of 10 μL of a solution containing the substrates. The final assay conditions were as follows: 6 nM human NAMPT, 2.5 mM ATP, […] in 50 mM HEPES, pH 7.2, 1 mM DTT, 1 mM CHAPS 50 mM NaCl, 100 mM MgCl2. Following an incubation of 60 min at ambient temperature, 10 μL of 20% acetophenone in DMSO was added, followed by 10 μL of 2 M KOH and 40 μL of formic acid. The plates were read for fluorescence (Excitation/Emission=355 nm/460 nm) using an EnVision plate reader after 40 mins of incubation at ambient temperature. The potency measurements for compounds, are quantified and represented as AC1.4 (the concentration of compounds that generates 40% higher activity over basal) and EC50 (concentration of the compound that gives half-maximal activation).

human NAMPT, sequence (P43490 whole entry): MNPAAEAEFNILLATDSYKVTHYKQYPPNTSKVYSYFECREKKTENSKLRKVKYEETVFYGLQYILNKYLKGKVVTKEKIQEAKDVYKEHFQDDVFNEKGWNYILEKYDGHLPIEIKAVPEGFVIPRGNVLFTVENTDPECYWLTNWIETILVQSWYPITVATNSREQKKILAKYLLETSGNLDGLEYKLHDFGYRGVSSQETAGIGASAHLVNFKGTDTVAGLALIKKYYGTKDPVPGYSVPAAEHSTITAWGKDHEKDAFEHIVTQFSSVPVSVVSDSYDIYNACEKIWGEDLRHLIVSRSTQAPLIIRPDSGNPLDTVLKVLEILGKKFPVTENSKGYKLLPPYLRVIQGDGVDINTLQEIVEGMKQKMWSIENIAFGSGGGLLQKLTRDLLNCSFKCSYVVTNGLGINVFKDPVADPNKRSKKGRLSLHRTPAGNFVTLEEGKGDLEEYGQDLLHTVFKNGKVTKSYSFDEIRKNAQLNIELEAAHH

Structure (SMILES)	AC1.4 Human [µM]	EC50 [µM]
Cc1nc(C(=O)N2CC(C)(O)C2)nc(NCCc2cn[nH]c2)c1C [Compound 125, (4-((2-(1H-pyrazol-4-yl)ethyl)amino)-5,6-dimethylpyrimidin-2-yl)(3-hydroxy-3-methylazetidin-1-yl)methanone]	4.313	22
COc1cccc(CNC(=O)c2nc(C)c(C)c(NCCc3cn[nH]c3)n2)n1 [Compound 88, 4-((2-(1H-pyrazol-4-yl)ethyl)amino)-N-((6-methoxypyridin-2-yl)methyl)-5,6-dimethylpyrimidine-2-carboxamide]	1.1435	7.21
Cc1nc(C(=O)N2CC(C(F)(F)F)C2)nc(NCCc2cn[nH]c2)c1C [Compound 100, (4-((2-(1H-pyrazol-4-yl)ethyl)amino)-5,6-dimethylpyrimidin-2-yl)(3-(trifluoromethyl)azetidin-1-yl)methanone]	6.3085	40.2
Cc1nc(C(=O)N2CCOCC2c2ccccc2Cl)nc(NCCc2cn[nH]c2)c1C (centres unmarked) [Compound 80, (4-((2-(1H-pyrazol-4-yl)ethyl)amino)-5,6-dimethylpyrimidin-2-yl)(3-(2-chlorophenyl)morpholino)methanone]	0.877	10.4
Cc1nc(C(=O)N2CCC(C(F)(F)F)CC2)nc(NCCc2cn[nH]c2)c1C [Compound 119, (4-((2-(1H-pyrazol-4-yl)ethyl)amino)-5,6-dimethylpyrimidin-2-yl)(4-(trifluoromethyl)piperidin-1-yl)methanone]	32.854	47.2
Cc1ccc(C(C)NC(=O)c2nc(C)c(C)c(NCCc3cn[nH]c3)n2)s1 (centres unmarked) [Compound 130, 4-((2-(1H-pyrazol-4-yl)ethyl)amino)-5,6-dimethyl-N-(1-(5-methylthiophen-2-yl)ethyl)pyrimidine-2-carboxamide]	3.2975	41
Cc1nc(C(=O)NCc2ccncc2)nc(NCCc2cn[nH]c2)c1C [Compound 133, 4-((2-(1H-pyrazol-4-yl)ethyl)amino)-5,6-dimethyl-N-(pyridin-4-ylmethyl)pyrimidine-2-carboxamide]	3.5315	28.9
Cc1nc(C(=O)NC(C)c2cncs2)nc(NCCc2cn[nH]c2)c1C (centres unmarked) [Compound 103, 4-((2-(1H-pyrazol-4-yl)ethyl)amino)-5,6-dimethyl-N-(1-(thiazol-5-yl)ethyl)pyrimidine-2-carboxamide]	1.6375	21.5
Cc1nc(C(=O)N[C@H](C)c2cncc(F)c2)nc(NCCc2cn[nH]c2)c1C [Compound 109, (R)-4-((2-(1H-pyrazol-4-yl)ethyl)amino)-N-(1-(5-fluoropyridin-3-yl)ethyl)-5,6-dimethylpyrimidine-2-carboxamide]	1.933	11.2
C[C@@H](NC(=O)c1nc2c(c(NCCc3cn[nH]c3)n1)CCC2)c1cccc(F)n1 [Compound 146, (R)-4-((2-(1H-pyrazol-4-yl)ethyl)amino)-N-(1-(6-fluoropyridin-2-yl)ethyl)-6,7-dihydro-5H-cyclopenta[d] pyrimidine-2-carboxamide]	2.7	
Cc1nc(C(=O)NCCS(=O)(=O)Cc2ccccc2)nc(NCCc2cn[nH]c2)c1C [Compound 141, 4-((2-(1H-pyrazol-4-yl)ethyl)amino)-N-(2-(benzylsulfonyl)ethyl)-5,6-dimethylpyrimidine-2-carboxamide]	3.8305	20.3
CCC1(O)CN(C(=O)c2nc(C)c(C)c(NCCc3cn[nH]c3)n2)C1 [Compound 107, (4-((2-(1H-pyrazol-4-yl)ethyl)amino)-5,6-dimethylpyrimidin-2-yl)(3-ethyl-3-hydroxyazetidin-1-yl)methanone]	2.339	14
Cc1nc(C(=O)Nc2ccncc2F)nc(NCCc2cn[nH]c2)c1C [Compound 144, 4-((2-(1H-pyrazol-4-yl)ethyl)amino)-N-(3-fluoropyridin-4-yl)-5,6-dimethylpyrimidine-2-carboxamide]	4.755	18.4
Cc1nc(C(=O)N2CC(CO)(c3ccccc3)C2)nc(NCCc2cn[nH]c2)c1C [Compound 84, (4-((2-(1H-pyrazol-4-yl)ethyl)amino)-5,6-dimethylpyrimidin-2-yl)(3-(hydroxymethyl)-3-phenylazetidin-1-yl)methanone]	31.857	40.2
Cc1nc(C(=O)NCCc2cncc(F)c2)nc(NCCc2cn[nH]c2)c1C [Compound 129, 4-((2-(1H-pyrazol-4-yl)ethyl)amino)-N-(2-(5-fluoropyridin-3-yl)ethyl)-5,6-dimethylpyrimidine-2-carboxamide]	3.249	21.3

Now from value to compound:

AC1.4 Human [µM]	EC50 [µM]	Structure (SMILES)
0.044	0.633	Cc1nc(C(=O)N2CC(O)(c3ccccc3)C2)nc(N2CC[C@@H](c3cn[nH]c3)C2)c1C (single isomer, unassigned) [Compound 9]
0.0745	0.597	Cc1nc(C(=O)N2CC(c3cccc(F)c3)C2)nc(NCCc2cn[nH]c2)c1C [Compound 18, (4-((2-(1H-pyrazol-4-yl)ethyl)amino)-5,6-dimethylpyrimidin-2-yl)(3-(3-fluorophenyl)azetidin-1-yl)methanone]
0.4805	1.69	Cc1nc(C(=O)N[C@H](C)c2coc3ccccc23)nc(NCCc2cn[nH]c2)c1C [Compound 65, (R)-4-((2-(1H-pyrazol-4-yl)ethyl)amino)-N-(1-(benzofuran-3-yl)ethyl)-5,6-dimethylpyrimidine-2-carboxamide]
0.21	1.51	Cc1nc(C(=O)N[C@H](C)c2cccc(F)c2)nc(NCCc2cn[nH]c2)c1C [Compound 39, (R)-4-((2-(1H-pyrazol-4-yl)ethyl)amino)-N-(1-(3-fluorophenyl)ethyl)-5,6-dimethylpyrimidine-2-carboxamide]
0.275	1.84	Cc1nc(C(=O)N2CCN(C)CC2c2ccccc2)nc(NCCc2cn[nH]c2)c1C (centres unmarked) [Compound 44, (4-((2-(1H-pyrazol-4-yl)ethyl)amino)-5,6-dimethylpyrimidin-2-yl)(4-methyl-2-phenylpiperazin-1-yl)methanone]
0.2845	2.35	Cc1nc(C(=O)NC(c2cccc(F)c2)c2ccccn2)nc(NCCc2cn[nH]c2)c1C (centres unmarked) [Compound 46, 4-((2-(1H-pyrazol-4-yl)ethyl)amino)-N-((3-fluorophenyl)(pyridin-2-yl)methyl)-5,6-dimethylpyrimidine-2-carboxamide]
0.2615	2.87	Cc1nc(C(=O)NC(C)(C)Cc2cccc(F)c2)nc(NCCc2cn[nH]c2)c1C [Compound 41, 4-((2-(1H-pyrazol-4-yl)ethyl)amino)-N-(1-(3-fluorophenyl)-2-methylpropan-2-yl)-5,6-dimethylpyrimidine-2-carboxamide]
0.35	2.37	Cc1nc(C(=O)N2CCC[C@@H]2c2ccccc2F)nc(NCCc2cn[nH]c2)c1C [Compound 54, (R)-(4-((2-(1H-pyrazol-4-yl)ethyl)amino)-5,6-dimethylpyrimidin-2-yl)(2-(2-fluorophenyl)pyrrolidin-1-yl)methanone]
0.3055	2.1	COC[C@H](NC(=O)c1nc(C)c(C)c(NCCc2cn[nH]c2)n1)c1cccc(F)c1 [Compound 49, (R)-4-((2-(1H-pyrazol-4-yl)ethyl)amino)-N-(1-(3-fluorophenyl)-2-methoxyethyl)-5,6-dimethylpyrimidine-2-carboxamide]
0.265	2.92	Cc1nc(C(=O)N2C[C@H](c3ccccc3)[C@@H](O)C2)nc(NCCc2cn[nH]c2)c1C [Compound 42, (4-((2-(1H-pyraazol-4-yl)ethyl)amino)-5,6-dimethylpyrimidin-2-yl)((3R,4S)-3-hydroxy-4-phenylpyrrolidin-1-yl)methanone]
0.106	0.872	Cc1nc(C(=O)N2CCOCC2(C)c2ccccc2)nc(NCCc2cn[nH]c2)c1C (centres unmarked) [Compound 25, (4-((2-(1H-pyrazol-4-yl)ethyl)amino)-5,6-dimethylpyrimidin-2-yl)(3-methyl-3-phenylmorpholino)methanone]
0.458	2.16	Cc1nc(C(=O)N2CCOC[C@H]2Cc2ccccc2)nc(NCCc2cn[nH]c2)c1C [Compound 64, (R)-(4-((2-(1H-pyrazol-4-yl)ethyl)amino)-5,6-dimethylpyrimidin-2-yl)(3-benzylmorpholino)methanone]
